Experimental findings from PubChem BioAssay (NCI) are described below.

Among the test systems are BT-549 breast; CAKI-1 renal; HCT-116 colon; HOP-92 NSCLC; LOX IMVI melanoma; M14 melanoma; SR leukemia; T-47D breast; TK-10 renal; CCRF-CEM leukemia.
Test in all cases: growth of human tumour cells (NCI), 48 h

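Cultured in 96-well plates, cells were exposed to test compound for 48 hours across five concentrations. At the GI50, growth is halved. TGI: concentration producing complete growth inhibition.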

Consider `NC(=O)NCCSC1CCCCC1O` (stereo unspecified), for which the TGI in the assay with BT-549 breast, in the assay with CAKI-1 renal, in the assay with HCT-116 colon, with HOP-92 NSCLC, in the assay with LOX IMVI melanoma and in the assay with M14 melanoma was greater than 100 µM throughout. Further, the TGI in the assay on SR leukemia, in the assay with T-47D breast and in the assay with TK-10 renal was greater than 100 µM in each case.

Turning to `Cc1ccc2[nH]c(C(=O)NN3C(=O)C(C)SC34CCCCC4C)c(-c3ccccc3)c2c1` (stereo unspecified), the GI50 in the assay with BT-549 breast is 18.8 µM; in the assay on CAKI-1 renal, 17 µM; in the assay with CCRF-CEM leukemia, 21.7 µM; in the assay with HCT-116 colon, 17.4 µM; in the assay on HOP-92 NSCLC, 19.5 µM; in the assay on LOX IMVI melanoma it was 18.9 µM. Moreover, the results for the GI50 in the assay on M14 melanoma, in the assay on T-47D breast and with TK-10 renal were 20.2 µM, 24.6 µM and 19.1 µM, respectively. Further, the TGI was determined as 34.5 µM in the assay with BT-549 breast; 40.7 µM in the assay on CAKI-1 renal; 73 µM in the assay on CCRF-CEM leukemia; 35.6 µM in the assay with HCT-116 colon; 38.5 µM in the assay with HOP-92 NSCLC; 35.4 µM in the assay on LOX IMVI melanoma. The TGI in the assay on M14 melanoma was found to be 38.8 µM; in the assay with T-47D breast, 78.9 µM; with TK-10 renal, 35.6 µM.

For `COc1ccc2[nH]cc(-c3nc(-c4c[nH]c5ccncc45)cs3)c2c1`, the GI50 in the assay on BT-549 breast was 8.96 µM; with CAKI-1 renal, 2.86 µM; in the assay with CCRF-CEM leukemia it was 2.45 µM; with HCT-116 colon, 1.77 µM; in the assay on HOP-92 NSCLC it was 1.79 µM; with M14 melanoma it was 1.83 µM. Moreover, the GI50 in the assay on TK-10 renal was 2.59 µM. The TGI amounted to 21.3 µM in the assay with BT-549 breast; 9.13 µM in the assay with CAKI-1 renal; 7.18 µM in the assay on CCRF-CEM leukemia; 3.33 µM in the assay with HCT-116 colon; 3.75 µM in the assay with HOP-92 NSCLC; 3.62 µM in the assay on M14 melanoma. Moreover, the TGI in the assay on TK-10 renal amounted to 4.64 µM.

Take `O=C1CC/C(=C\COc2ccc3ccc(=O)oc3c2)O1`: the GI50 in the assay on BT-549 breast is 10.2 µM; in the assay on CAKI-1 renal it was 1.97 µM; in the assay with CCRF-CEM leukemia it was 2.42 µM; with HCT-116 colon it was 6.25 µM; with HOP-92 NSCLC it was 10.6 µM; in the assay with LOX IMVI melanoma, 6.96 µM. In addition, the GI50 was 3.28 µM with M14 melanoma, 4.83 µM in the assay with T-47D breast and 2.83 µM with TK-10 renal. For the same molecule, the TGI in the assay with BT-549 breast was determined as 26.4 µM; with CAKI-1 renal it was 20.6 µM; in the assay with CCRF-CEM leukemia, 13.6 µM; with HCT-116 colon, 22.8 µM; in the assay on HOP-92 NSCLC, 25.5 µM; in the assay on LOX IMVI melanoma it was 20.6 µM. Also, the results for the TGI with M14 melanoma, in the assay on T-47D breast and with TK-10 renal were 13.9 µM, 27.1 µM and 17.7 µM, respectively.

Regarding `CO/N=C(/COc1c(-c2ccccc2)oc2ccccc2c1=O)c1ccc(F)cc1`, the GI50 with BT-549 breast is 82.9 µM; with CAKI-1 renal, greater than 100 µM; in the assay with CCRF-CEM leukemia, 12.6 µM; in the assay with HCT-116 colon, 39.3 µM; with LOX IMVI melanoma, 69.9 µM; with M14 melanoma, 30.6 µM. Further, the GI50 is 22 µM in the assay on SR leukemia, greater than 100 µM with T-47D breast and 27.2 µM with TK-10 renal. Also, the TGI with BT-549 breast was greater than 100 µM; in the assay on CAKI-1 renal it was greater than 100 µM; in the assay with CCRF-CEM leukemia it was 67.9 µM; in the assay with HCT-116 colon, greater than 100 µM; with LOX IMVI melanoma, greater than 100 µM; in the assay with M14 melanoma, greater than 100 µM. Also, the results for the TGI in the assay on SR leukemia, with T-47D breast and with TK-10 renal were greater than 100 µM, greater than 100 µM and 95.7 µM, respectively.

For `N/C(=N\c1nc2ccccc2s1)NC(=O)Nc1cccc2ccccc12`, the GI50 is 2.91 µM with BT-549 breast; 0.36 µM with CCRF-CEM leukemia; 1.81 µM with HOP-92 NSCLC; 0.825 µM in the assay with LOX IMVI melanoma; 0.23 µM in the assay with M14 melanoma; 0.0591 µM with SR leukemia. In addition, the GI50 with T-47D breast is 0.556 µM. For the same molecule, the TGI with BT-549 breast was greater than 100 µM; with CCRF-CEM leukemia it was greater than 100 µM; in the assay with HOP-92 NSCLC, greater than 47.3 µM; in the assay with LOX IMVI melanoma it was greater than 100 µM; in the assay on M14 melanoma, greater than 100 µM; in the assay on SR leukemia it was greater than 100 µM. Besides, in the assay on T-47D breast, the TGI was greater than 100 µM.

On to `c1cncc(CNc2ncn[nH]2)c1`, for which the TGI with BT-549 breast, with CAKI-1 renal, in the assay with HCT-116 colon, in the assay on HOP-92 NSCLC, in the assay with LOX IMVI melanoma and in the assay with M14 melanoma was greater than 100 µM each time. Further, the TGI in the assay with SR leukemia, in the assay with T-47D breast and in the assay with TK-10 renal was greater than 100 µM throughout.

Turning to `O=[N+]([O-])c1ccc(N=Nc2c(O)[nH]c3ccccc23)cc1`, the TGI is 71.3 µM in the assay with BT-549 breast; 40.4 µM in the assay with CAKI-1 renal; greater than 80.1 µM in the assay on CCRF-CEM leukemia; greater than 96.4 µM in the assay on HCT-116 colon; greater than 96.3 µM in the assay on LOX IMVI melanoma; greater than 100 µM in the assay on M14 melanoma. In addition, the TGI was 45.9 µM in the assay with SR leukemia, 35.8 µM in the assay on T-47D breast and greater than 51.2 µM in the assay with TK-10 renal.

Turning to `Cc1cn2c(=O)n(c1=O)Cc1ccccc1C2`, the GI50 is 48.4 µM in the assay on BT-549 breast; greater than 100 µM with CAKI-1 renal; 50.6 µM in the assay on CCRF-CEM leukemia; 27.3 µM with HCT-116 colon; greater than 100 µM with HOP-92 NSCLC; 32 µM in the assay with LOX IMVI melanoma. The GI50 was greater than 100 µM in the assay with M14 melanoma, 0.182 µM with T-47D breast and greater than 100 µM with TK-10 renal. Besides, the TGI with BT-549 breast, with CAKI-1 renal, with CCRF-CEM leukemia, in the assay on HCT-116 colon, with HOP-92 NSCLC and with LOX IMVI melanoma was greater than 100 µM in each case. In addition, the results for the TGI with M14 melanoma, with T-47D breast and in the assay with TK-10 renal were greater than 100 µM, 10.8 µM and greater than 100 µM, respectively.

Turning to `C=C1C(=O)O[C@H]2C[C@@H]1CCC1(C)OC1CC/C(C)=C/CC[C@H]2C` (stereo partly specified), the GI50 with BT-549 breast is 23.5 µM; in the assay with HCT-116 colon, 17.7 µM; with LOX IMVI melanoma, 24 µM; in the assay on M14 melanoma it was 18 µM; in the assay on SR leukemia, 18.1 µM; with T-47D breast, 16.9 µM. Besides, the GI50 with TK-10 renal is 17.6 µM. Further, the TGI with BT-549 breast came out at 45.3 µM; with HCT-116 colon, 31.5 µM; in the assay on LOX IMVI melanoma, 38.6 µM; with M14 melanoma, 31.9 µM; in the assay with SR leukemia, 33 µM; in the assay with T-47D breast, 37.6 µM. This molecule displayed a TGI with TK-10 renal of 31.8 µM.
